Tests used:
Test in all cases: NCI 60 one dose (10 μM) anticancer assay
Format in all cases: cell-based
[1] = test system: CCRF-CEM; details: Homo sapiens, 10 µM one dose, Leukemia, read-out: Growth Inhibition % CCRF-CEM
Procedure: (§1) Some of the synthesized compounds were selected by the NCI, Bethesda, MD, USA for evaluation of their anticancer activity. An in vitro one dose (10 μM) anticancer assay was conducted on a full NCI 60-cell line panel derived from 9 different cancer types. Table 2 presents the percent of growth inhibition of some cell lines. […] K-562 and MOLT-4 from leukemia, NCI-H522 from non-small cell lung cancer, HCT-116 from colon cancer, SK-MEL-5 and UACC-62 from melanoma, UO-31 from renal cancer, PC-3 from prostate cancer and HS 578T and T-47D from breast cancer are the most sensitive cell lines to the tested compounds. No growth inhibition was observed from the selected compounds against COLO205, HCC-2998, MALME-3M, SK-MEL-28, DU-145 and BT-549 cell lines. […] Against UO-31 from renal cancer and PC-3 from prostate cancer, it inhibited the growth of 44% and 58% of the cancer cells, respectively.

[2] = test system: TK-10; details: Homo sapiens, 10 µM one dose, Renal Cancer, read-out: Growth Inhibition % TK-10
Procedure: as §1

[3] = test system: HT29; details: Homo sapiens, HT-29; 10 µM one dose; Colon Cancer; read-out: Growth Inhibition % HT29
Procedure: as §1

[4] = test system: U251; details: Homo sapiens, U-251; 10 µM one dose; CNS Cancer; read-out: Growth Inhibition % U251
Procedure: as §1

[5] = test system: SW-620; details: Homo sapiens, 10 µM one dose, Colon Cancer, read-out: Growth Inhibition % SW-620
Procedure: as §1

[6] = test system: HCT-116; details: Homo sapiens, 10 µM one dose, Colon Cancer, read-out: Growth Inhibition % HCT-116
Procedure: as §1

[7] = test system: MDA-MB-231/ATTC; details: Homo sapiens, 10 µM one dose, Breast Cancer, read-out: Growth Inhibition % MDA-MB-231/ATTC
Procedure: as §1

[8] = test system: BT-549; details: Homo sapiens, 10 µM one dose, Breast Cancer, read-out: Growth Inhibition % BT-549
Procedure: as §1

[9] = test system: NCI-H23; details: Homo sapiens, 10 µM one dose, Non-small cell lung Cancer, read-out: Growth Inhibition % NCI-H23
Procedure: as §1

[10] = test system: NCI/ADR-RES; details: Homo sapiens, 10 µM one dose, Ovarian Cancer, read-out: Growth Inhibition % NCI/ADR-RES
Procedure: as §1

[11] = test system: SF-268; details: Homo sapiens, 10 µM one dose, CNS Cancer, read-out: Growth Inhibition % SF-268
Procedure: as §1

[12] = test system: NCI-H522; details: Homo sapiens, 10 µM one dose, Non-small cell lung Cancer, read-out: Growth Inhibition % NCI-H522
Procedure: as §1

[13] = test system: M14; details: Homo sapiens, 10 µM one dose, Melanoma, read-out: Growth Inhibition % M14
Procedure: as §1

[14] = test system: OVCAR-5; details: Homo sapiens, 10 µM one dose, Ovarian Cancer, read-out: Growth Inhibition % OVCAR-5
Procedure: as §1

[15] = test system: HS 578T; details: Homo sapiens, 10 µM one dose, Breast Cancer, read-out: Growth Inhibition % HS 578T
Procedure: as §1

[16] = test system: SNB-75; details: Homo sapiens, 10 µM one dose, CNS Cancer, read-out: Growth Inhibition % SNB-75
Procedure: as §1

[17] = test system: MDA-MB-468; details: Homo sapiens, 10 µM one dose, Breast Cancer, read-out: Growth Inhibition % MDA-MB-468
Procedure: as §1

[18] = test system: UACC-62; details: Homo sapiens, 10 µM one dose, Melanoma, read-out: Growth Inhibition % UACC-62
Procedure: as §1

[19] = test system: NCI-H460; details: Homo sapiens, 10 µM one dose, Non-small cell lung Cancer, read-out: Growth Inhibition % NCI-H460
Procedure: as §1

[20] = test system: HCT-15; details: Homo sapiens, 10 µM one dose, Colon Cancer, read-out: Growth Inhibition % HCT-15
Procedure: as §1

[21] = test system: MOLT-4; details: Homo sapiens, 10 µM one dose, Leukemia, read-out: Growth Inhibition % MOLT-4
Procedure: as §1

[22] = test system: A498; details: Homo sapiens, 10 µM one dose, Renal Cancer, read-out: Growth Inhibition % A498
Procedure: as §1

[23] = test system: SNB-19; details: Homo sapiens, 10 µM one dose, CNS Cancer, read-out: Growth Inhibition % SNB-19
Procedure: as §1

[24] = test system: CAK1-1; details: 10 µM one dose; Renal Cancer; read-out: Growth Inhibition % CAK1-1
Procedure: as §1

[25] = test system: KM12; details: Homo sapiens, 10 µM one dose, Colon Cancer, read-out: Growth Inhibition % KM12
Procedure: as §1

[26] = test system: LOX IMVI; details: Homo sapiens, 10 µM one dose, Melanoma, read-out: Growth Inhibition % LOX IMVI
Procedure: as §1

[27] = test system: 786-0; details: Homo sapiens, 10 µM one dose, Renal Cancer, read-out: Growth Inhibition % 786-0
Procedure: as §1

[28] = test system: EKVX; details: Homo sapiens, 10 µM one dose, Non-small cell lung Cancer, read-out: Growth Inhibition % EKVX
Procedure: as §1

[29] = test system: MCF7; details: Homo sapiens, 10 µM one dose, Breast Cancer, read-out: Growth Inhibition % MCF7
Procedure: as §1

[30] = test system: SR; details: Homo sapiens, 10 µM one dose, Leukemia, read-out: Growth Inhibition % SR
Procedure: as §1

`COc1cc(/C=N/NC(=O)Cn2c(C(C)C)nc3ccccc32)ccc1OCc1ccccc1` [Compound 17e, (E)-N′-(4-(Benzyloxy)-3-methoxybenzylidene)-2-(2-isopropyl-1H-benzo[d]imidazol-1-yl)acetohydrazide] was tested, and the inhibition at 10 µM [1] was under 10%, the inhibition at 10 µM [2] was under 10% and the inhibition at 10 µM [3] was under 10%. For the same compound, the inhibition at 10 µM [4] was under 10%, the inhibition at 10 µM [5] was under 10% and the inhibition at 10 µM [6] was under 10%. For the same compound, the inhibition at 10 µM [7] was under 10%, the inhibition at 10 µM [8] was under 10% and the inhibition at 10 µM [9] was under 10%. For the same compound, the inhibition at 10 µM [10] was under 10%, the inhibition at 10 µM [11] was under 10% and the inhibition at 10 µM [12] was 32%. The inhibition at 10 µM [13] was under 10%, the inhibition at 10 µM [14] was under 10% and the inhibition at 10 µM [15] was under 10%. It also gave an inhibition at 10 µM [16] of under 10%, an inhibition at 10 µM [17] of under 10% and an inhibition at 10 µM [18] of 22%. For the same compound, the inhibition at 10 µM [19] was under 10%, the inhibition at 10 µM [20] was under 10% and the inhibition at 10 µM [21] was 22%. The inhibition at 10 µM [22] was 22%, the inhibition at 10 µM [23] was under 10% and the inhibition at 10 µM [24] was under 10%. It also gave an inhibition at 10 µM [25] of under 10%, an inhibition at 10 µM [26] of under 10% and an inhibition at 10 µM [27] of under 10%. The inhibition at 10 µM [28] was under 10%, the inhibition at 10 µM [29] was under 10% and the inhibition at 10 µM [30] was under 10%.
`COc1cc(/C=N/NC(=O)Cn2c(-c3ccc(C)o3)nc3ccccc32)ccc1OCc1ccccc1` [Compound 17f, (E)-N′-(4-(Benzyloxy)-3-methoxybenzylidene)-2-(2-(5-methylfuran-2-yl)-1H-benzo[d]imidazol-1-yl)acetohydrazide] showed an inhibition at 10 µM [1] of 19%, an inhibition at 10 µM [2] of under 10% and an inhibition at 10 µM [3] of under 10%. The inhibition at 10 µM [4] was under 10%, the inhibition at 10 µM [5] was under 10% and the inhibition at 10 µM [6] was 28%. For the same compound, the inhibition at 10 µM [7] was 21%, the inhibition at 10 µM [8] was under 10% and the inhibition at 10 µM [9] was under 10%. For the same compound, the inhibition at 10 µM [10] was under 10%, the inhibition at 10 µM [11] was 24% and the inhibition at 10 µM [12] was 26%. The inhibition at 10 µM [13] was under 10%, the inhibition at 10 µM [14] was under 10% and the inhibition at 10 µM [15] was 30%. The inhibition at 10 µM [16] was 17%, the inhibition at 10 µM [17] was 23% and the inhibition at 10 µM [18] was 22%. It also gave an inhibition at 10 µM [19] of under 10%, an inhibition at 10 µM [20] of 26% and an inhibition at 10 µM [21] of 50%. The inhibition at 10 µM [22] was 21%, the inhibition at 10 µM [23] was 20% and the inhibition at 10 µM [24] was 17%. The inhibition at 10 µM [25] was 15%, the inhibition at 10 µM [26] was under 10% and the inhibition at 10 µM [27] was under 10%. For the same compound, the inhibition at 10 µM [28] was 25%, the inhibition at 10 µM [29] was 24% and the inhibition at 10 µM [30] was 25%.
